Key:
Assay in all cases: Protein kinase inhibition assay
Format in all cases: biochemical
CDK2/cyclinE(h) = CDK2/cyclinE(h) (Homo sapiens, UniProt P24941); details: read-out: percent residual activity of CDK2/cyclinE(h)
Protocol: (§1) Certain compounds were tested for activity in protein kinase inhibition assays. All substrates were dissolved and diluted to working stocks in de-ionized water, apart from histone H1 (10× working stock in 20 mM MOPS pH 7.0), PDKtide (10× working stock in 50 mM Tris pH 7.0) ATF2 (which is typically stored at a 20× working stock in 50 mM Tris pH 7.5, 150 mM NaCl, 0.1 mM EGTA, 0.03% Brij-35, 50% glycerol, 1 mM benzamidine, 0.2 mM PMSF and 0.1% R-mercaptoethanol), KKLNRTLSFAEPG (SEQ ID NO:203) and RRRLSFAEPG (SEQ ID NO:204) (50 mM HEPES pH 7.4) and GGEEEEYFELVKKKK (SEQ ID NO:205) (20 mM MOPS pH 7.0). All kinases were pre-diluted to a 10× working concentration prior to addition into the assay. The composition of the dilution buffer for each kinase is detailed below.
(§2) In a final reaction volume of 25 μl, CDK2/cyclinE (h) (5-10 mU) is incubated with 8 mM MOPS pH 7.0, 0.2 mM EDTA, 0.1 mg/ml histone H1, 10 mM MgAcetate and [gamma-33P-ATP] (specific activity approx. 500 cpm/pmol, concentration as required). The reaction is initiated by the addition of the MgATP mix. After incubation for 40 minutes at room temperature, the reaction is stopped by the addition of 5 μl of a 3% phosphoric acid solution. 10 μl of the reaction is then spotted onto a P30 filtermat and washed three times for 5 minutes in 75 mM phosphoric acid and once in methanol prior to drying and scintillation counting.

ROCK-II(r) = ROCK-II(r) (Rattus norvegicus, UniProt Q62868); details: read-out: percent residual activity of ROCK-II(r)
Protocol: as §1
as §2, with “ROCK-II (r)” for “CDK2/cyclinE (h)”, “50” for “8”, “Tris” for “MOPS”, “7.5, 0.1” for “7.0, 0.2”, “EGTA, 30 μM […] (SEQ ID NO:222),” for “EDTA, 0.1 mg/ml histone H1,”

Rse(h) = Rse(h) (Homo sapiens, UniProt Q06418); details: read-out: percent residual activity of Rse(h)
Protocol: as §1
In a final reaction volume of 25 μl, Rse (h) (5-10 mU) is incubated with 8 mM MOPS pH 7.0, 0.2 mM EDTA, 250 μM KVEKIGEGTYGVVYK (SEQ ID NO:211), 1 mM MnCl2, 10 mM MgAcetate and [gamma-33P-ATP] (specific activity approx. 500 cpm/pmol, concentration as required). The reaction is initiated by the addition of the MgATP mix. After incubation for 40 minutes at room temperature, the reaction is stopped by the addition of 5 μl of a 3% phosphoric acid solution. […]

TrkB(h) = TrkB(h) (Homo sapiens, UniProt Q16620); details: read-out: percent residual activity of TrkB(h)
Protocol: as §1
as §2, with “TrkB” for “CDK2/cyclinE”, “poly(Glu, Tyr) 4:1,” for “histone H1,”, “Filtermat A” for “P30 filtermat”

PDGFRβ(h) = PDGFRβ(h) (Homo sapiens, UniProt P09619); details: read-out: percent residual activity of PDGFRβ(h)
Protocol: as §1
as §2, with “PDGFRβ” for “CDK2/cyclinE”, “poly(Glu, Tyr) 4:1, 10 mM MnCl2,” for “histone H1,”, “Filtermat A” for “P30 filtermat”

MAPK2(m) = MAPK2(m) (Mus musculus, UniProt P63085); details: read-out: percent residual activity of MAPK2(m)
Protocol: as §1
In a final reaction volume of 25 μl, MAPK2 (m) (5-10 mU) is incubated with 25 mM Tris pH 7.5, 0.02 mM EGTA, 0.33 mg/ml myelin basic protein, 10 mM MgAcetate and [gamma-33P-ATP] (specific activity approx. 500 cpm/pmol, concentration as required). The reaction is initiated by the addition of the MgATP mix. After incubation for 40 minutes at room temperature, the reaction is stopped by the addition of 5 μl of a 3% phosphoric acid solution. 10 μpl of the reaction is then spotted onto a P30 filtermat and washed three times for 5 minutes in 75 mM phosphoric acid and once in methanol prior to drying and scintillation counting.

Chain of MAPK2(m) (P63085 whole entry): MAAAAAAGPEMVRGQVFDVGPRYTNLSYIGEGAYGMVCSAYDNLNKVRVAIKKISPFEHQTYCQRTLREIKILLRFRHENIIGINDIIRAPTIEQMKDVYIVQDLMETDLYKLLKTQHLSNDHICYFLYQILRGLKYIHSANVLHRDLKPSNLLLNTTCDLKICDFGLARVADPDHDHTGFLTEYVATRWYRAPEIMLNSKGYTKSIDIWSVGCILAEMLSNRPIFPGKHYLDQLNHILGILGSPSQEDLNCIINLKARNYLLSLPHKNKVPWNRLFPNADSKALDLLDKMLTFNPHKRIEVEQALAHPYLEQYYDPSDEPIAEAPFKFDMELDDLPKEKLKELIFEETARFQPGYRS
Chain of ROCK-II(r) (Q62868 whole entry): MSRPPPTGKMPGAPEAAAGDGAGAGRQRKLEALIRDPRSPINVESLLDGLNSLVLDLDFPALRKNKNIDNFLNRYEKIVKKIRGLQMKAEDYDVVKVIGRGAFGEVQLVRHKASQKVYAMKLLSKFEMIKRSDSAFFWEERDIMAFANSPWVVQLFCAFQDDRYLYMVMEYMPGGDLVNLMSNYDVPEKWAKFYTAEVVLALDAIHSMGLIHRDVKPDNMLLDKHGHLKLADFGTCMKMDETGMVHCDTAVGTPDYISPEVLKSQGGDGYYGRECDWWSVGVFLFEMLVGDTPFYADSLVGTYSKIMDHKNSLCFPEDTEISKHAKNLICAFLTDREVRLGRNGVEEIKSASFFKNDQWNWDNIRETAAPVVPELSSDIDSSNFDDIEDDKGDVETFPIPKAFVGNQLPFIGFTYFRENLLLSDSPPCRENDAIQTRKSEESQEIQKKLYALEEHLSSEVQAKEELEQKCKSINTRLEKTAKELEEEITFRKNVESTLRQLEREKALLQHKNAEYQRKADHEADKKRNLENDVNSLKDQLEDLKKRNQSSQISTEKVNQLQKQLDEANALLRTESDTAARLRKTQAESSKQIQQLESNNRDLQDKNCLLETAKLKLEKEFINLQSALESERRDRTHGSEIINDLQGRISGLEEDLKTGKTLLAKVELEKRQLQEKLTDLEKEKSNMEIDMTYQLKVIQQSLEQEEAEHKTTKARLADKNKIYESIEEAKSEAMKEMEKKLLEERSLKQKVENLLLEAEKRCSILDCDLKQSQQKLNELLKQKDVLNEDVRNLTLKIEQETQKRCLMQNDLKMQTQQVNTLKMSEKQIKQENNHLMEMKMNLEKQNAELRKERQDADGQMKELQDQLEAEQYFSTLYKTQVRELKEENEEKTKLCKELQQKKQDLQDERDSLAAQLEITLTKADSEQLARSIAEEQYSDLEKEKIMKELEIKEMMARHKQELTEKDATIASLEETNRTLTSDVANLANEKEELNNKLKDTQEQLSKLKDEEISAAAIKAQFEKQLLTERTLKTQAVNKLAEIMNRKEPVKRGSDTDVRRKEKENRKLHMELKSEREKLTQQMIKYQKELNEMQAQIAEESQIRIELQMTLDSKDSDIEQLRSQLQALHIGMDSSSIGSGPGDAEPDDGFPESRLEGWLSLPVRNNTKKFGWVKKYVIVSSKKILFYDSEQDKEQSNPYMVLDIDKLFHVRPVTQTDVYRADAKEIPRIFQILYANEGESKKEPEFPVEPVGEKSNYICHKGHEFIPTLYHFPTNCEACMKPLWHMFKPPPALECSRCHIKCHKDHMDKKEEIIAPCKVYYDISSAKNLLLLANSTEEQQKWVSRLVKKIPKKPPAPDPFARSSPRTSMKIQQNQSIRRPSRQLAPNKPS
Chain of Rse(h) (Q06418 41-890): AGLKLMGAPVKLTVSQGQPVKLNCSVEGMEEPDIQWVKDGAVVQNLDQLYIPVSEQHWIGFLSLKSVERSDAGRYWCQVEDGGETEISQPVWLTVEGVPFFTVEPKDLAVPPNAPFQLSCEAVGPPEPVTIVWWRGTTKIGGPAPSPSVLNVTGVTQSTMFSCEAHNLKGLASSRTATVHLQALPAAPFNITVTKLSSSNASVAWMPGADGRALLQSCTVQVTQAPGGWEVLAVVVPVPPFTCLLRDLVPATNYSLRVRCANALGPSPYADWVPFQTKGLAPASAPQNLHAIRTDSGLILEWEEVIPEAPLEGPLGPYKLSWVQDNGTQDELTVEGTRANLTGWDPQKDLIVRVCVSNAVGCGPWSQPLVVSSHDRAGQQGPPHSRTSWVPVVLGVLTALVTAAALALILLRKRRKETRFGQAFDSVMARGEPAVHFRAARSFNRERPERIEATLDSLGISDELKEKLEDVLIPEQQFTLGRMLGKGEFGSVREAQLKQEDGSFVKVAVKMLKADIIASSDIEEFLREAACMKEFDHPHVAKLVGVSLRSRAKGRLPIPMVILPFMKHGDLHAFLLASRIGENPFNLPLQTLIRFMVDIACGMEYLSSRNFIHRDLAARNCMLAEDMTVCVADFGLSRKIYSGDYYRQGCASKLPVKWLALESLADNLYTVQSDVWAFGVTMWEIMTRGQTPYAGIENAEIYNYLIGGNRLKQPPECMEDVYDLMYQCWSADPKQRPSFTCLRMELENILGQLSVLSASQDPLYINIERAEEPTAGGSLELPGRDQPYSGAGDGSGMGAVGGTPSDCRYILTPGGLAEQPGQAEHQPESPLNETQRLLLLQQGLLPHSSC
Chain of PDGFRβ(h) (P09619 33-1106): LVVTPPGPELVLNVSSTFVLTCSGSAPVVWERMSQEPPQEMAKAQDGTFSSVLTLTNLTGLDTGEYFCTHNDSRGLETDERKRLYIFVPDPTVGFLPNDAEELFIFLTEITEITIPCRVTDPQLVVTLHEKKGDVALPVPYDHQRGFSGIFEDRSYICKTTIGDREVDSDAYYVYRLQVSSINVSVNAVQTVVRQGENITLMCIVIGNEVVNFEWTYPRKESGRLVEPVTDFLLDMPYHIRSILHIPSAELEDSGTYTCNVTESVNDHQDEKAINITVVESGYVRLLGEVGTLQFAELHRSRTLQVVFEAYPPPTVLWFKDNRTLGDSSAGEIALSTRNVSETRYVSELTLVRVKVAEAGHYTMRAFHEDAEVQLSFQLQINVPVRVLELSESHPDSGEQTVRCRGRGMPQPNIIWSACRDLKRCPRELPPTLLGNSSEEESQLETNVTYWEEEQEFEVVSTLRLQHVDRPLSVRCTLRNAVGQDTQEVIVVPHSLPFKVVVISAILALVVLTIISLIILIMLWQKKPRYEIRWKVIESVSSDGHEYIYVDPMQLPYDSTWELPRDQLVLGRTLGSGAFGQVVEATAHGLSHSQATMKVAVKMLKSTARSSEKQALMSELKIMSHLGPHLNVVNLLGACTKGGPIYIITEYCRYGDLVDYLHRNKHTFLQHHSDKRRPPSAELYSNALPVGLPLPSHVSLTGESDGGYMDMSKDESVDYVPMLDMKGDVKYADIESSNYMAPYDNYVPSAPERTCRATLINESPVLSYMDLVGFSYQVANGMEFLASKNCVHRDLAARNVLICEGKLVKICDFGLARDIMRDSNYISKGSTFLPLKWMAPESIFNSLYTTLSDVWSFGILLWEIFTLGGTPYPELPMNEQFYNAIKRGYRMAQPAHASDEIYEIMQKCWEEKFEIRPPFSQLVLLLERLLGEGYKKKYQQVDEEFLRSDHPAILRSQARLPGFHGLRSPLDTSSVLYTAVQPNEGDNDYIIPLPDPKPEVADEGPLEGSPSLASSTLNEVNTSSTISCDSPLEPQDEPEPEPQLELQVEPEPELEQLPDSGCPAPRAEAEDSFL
Chain of TrkB(h) (Q16620 32-822): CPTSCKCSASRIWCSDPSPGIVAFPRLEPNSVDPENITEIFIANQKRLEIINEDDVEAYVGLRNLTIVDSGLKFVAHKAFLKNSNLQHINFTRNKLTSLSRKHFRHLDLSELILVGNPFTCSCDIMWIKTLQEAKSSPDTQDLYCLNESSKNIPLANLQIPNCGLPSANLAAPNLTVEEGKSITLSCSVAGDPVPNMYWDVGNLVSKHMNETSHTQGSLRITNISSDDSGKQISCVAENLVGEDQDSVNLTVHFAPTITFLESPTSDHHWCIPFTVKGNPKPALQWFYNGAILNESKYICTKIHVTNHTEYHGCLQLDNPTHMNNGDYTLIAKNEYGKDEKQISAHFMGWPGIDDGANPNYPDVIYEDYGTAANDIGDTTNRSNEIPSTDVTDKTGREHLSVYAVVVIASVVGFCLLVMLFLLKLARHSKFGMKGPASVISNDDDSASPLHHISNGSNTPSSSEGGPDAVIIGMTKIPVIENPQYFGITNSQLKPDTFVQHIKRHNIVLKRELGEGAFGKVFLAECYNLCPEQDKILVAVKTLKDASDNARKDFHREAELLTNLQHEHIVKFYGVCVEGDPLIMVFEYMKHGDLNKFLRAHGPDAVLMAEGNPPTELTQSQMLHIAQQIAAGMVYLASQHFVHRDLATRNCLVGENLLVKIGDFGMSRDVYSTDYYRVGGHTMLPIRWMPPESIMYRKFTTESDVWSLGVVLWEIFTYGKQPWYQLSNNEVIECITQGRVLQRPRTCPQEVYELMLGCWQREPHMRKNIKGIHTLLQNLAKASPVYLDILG

| Structure (SMILES) | remaining activity at 2.5 µM (CDK2/cyclinE(h)) | remaining activity at 2.5 µM (ROCK-II(r)) | remaining activity at 2.5 µM (Rse(h)) | remaining activity at 2.5 µM (TrkB(h)) | remaining activity at 2.5 µM (PDGFRβ(h)) | remaining activity at 2.5 µM (MAPK2(m)) |
| --- | --- | --- | --- | --- | --- | --- |
| CN1CCCC1CCNC(=O)c1cn2c3c(c(N4CCC(c5cnccn5)C4)c(F)cc3c1=O)Oc1cc3ccccc3cc1-2 (stereo not drawn) [Compound A-1] | 102% | 48% | 92% | 44% | 103% | 95% |
| CC(=O)N1CCN(c2ccc3c(=O)c(C(=O)NCCN4CCCC4)c4n(C)c5ccccc5n4c3n2)CC1 [Compound B-1] | 117% | 103% | 92% | 118% | 103% | 102% |

— US20070117770A1, “Human ribosomal DNA (rDNA) and ribosomal RNA (rRNA) nucleic acids and uses thereof” (Cylene Pharmaceuticals, Inc., priority 2005, published 2007)
